Data on 5 compounds can be found in ChEMBL document CHEMBL1154594, “Delta agonist hydroxy bioisosteres: the discovery of 3-((1-benzylpiperidin-4-yl){4-[(diethylamino)carbonyl]phenyl}amino)benzamide with improved delta agonist activity and in vitro metabolic stability” (Bioorg Med Chem Lett, 2009).

Data set [1] in a line: Intrinsic clearance in human liver microsomes. It counts as ADME, Microsome. A general note: Liver microsomes are a subcellular fraction often used to study metabolism.
A short description of data set [2]: Intrinsic clearance in rat liver microsomes. The data set is classed as ADME, Microsome.

By microsomal CLint is commonly meant a measure of how fast metabolising enzymes remove a compound, apart from limits set by blood flow. A higher microsomal CLint goes with faster metabolism. As to `CCN(CC)C(=O)c1ccc(N(c2cccc(O)c2)C2CCN(Cc3ccccc3)CC2)cc1`, the values for the microsomal CLint in data set [1] and in data set [2] were 286 µL/min/mg and 384 µL/min/mg, respectively. In the case of `CCN(CC)C(=O)c1ccc(N(c2cccc(NC(C)=O)c2)C2CCN(Cc3ccccc3)CC2)cc1`, the microsomal CLint in data set [1] stood at 139 µL/min/mg.

In data set [1], `CCN(CC)C(=O)c1ccc(N(c2cccc(NC(=O)OC)c2)C2CCN(Cc3ccccc3)CC2)cc1` gave a microsomal CLint of 200 µL/min/mg. Regarding `CCN(CC)C(=O)c1ccc(N(c2cccc(C(N)=O)c2)C2CCN(Cc3ccccc3)CC2)cc1`, the microsomal CLint in data set [1] turned out to be 71 µL/min/mg; in data set [2] it was 62 µL/min/mg.

Turning to `CCN(CC)C(=O)c1ccc(N(c2cccc(NS(C)(=O)=O)c2)C2CCN(Cc3ccccc3)CC2)cc1`, the microsomal CLint in data set [1] worked out at 96 µL/min/mg.
